Data set [1] in a line: Protein binding fraction (PBF) in human plasma. The format is in vitro ADME. The settings on record: 1-50 μM radiolabeled tasquinimod. As for the experimental part: An explanation for this highly restricted cellular uptake in the blood is provided by the fact that protein binding fraction (PBF) for tasquinimod in nude mouse plasma is 98 ± 1%. This is not a nude mouse specific effect since incubation of 1-50 μM radiolabeled tasquinimod with human plasma or bovine fetal serum (FBS) results in a PBF of ~ 98%.
Mice were orally gavaged with ^14C-labeled tasquinimod at a dose of 5mg/kg and 1 hour later blood collected and plasma isolated and the PBF determined as described previously using Centrifree® YM-30 centrifuge filter unit with a molecular weight cutoff of 30K (i.e., Millipore, Billerica,MO).

In another data set the target is T1, mouse albumin (Mus musculus, UniProt P07724).
T1 construct: purchased Sigma
T1 sequence (P07724 25-608): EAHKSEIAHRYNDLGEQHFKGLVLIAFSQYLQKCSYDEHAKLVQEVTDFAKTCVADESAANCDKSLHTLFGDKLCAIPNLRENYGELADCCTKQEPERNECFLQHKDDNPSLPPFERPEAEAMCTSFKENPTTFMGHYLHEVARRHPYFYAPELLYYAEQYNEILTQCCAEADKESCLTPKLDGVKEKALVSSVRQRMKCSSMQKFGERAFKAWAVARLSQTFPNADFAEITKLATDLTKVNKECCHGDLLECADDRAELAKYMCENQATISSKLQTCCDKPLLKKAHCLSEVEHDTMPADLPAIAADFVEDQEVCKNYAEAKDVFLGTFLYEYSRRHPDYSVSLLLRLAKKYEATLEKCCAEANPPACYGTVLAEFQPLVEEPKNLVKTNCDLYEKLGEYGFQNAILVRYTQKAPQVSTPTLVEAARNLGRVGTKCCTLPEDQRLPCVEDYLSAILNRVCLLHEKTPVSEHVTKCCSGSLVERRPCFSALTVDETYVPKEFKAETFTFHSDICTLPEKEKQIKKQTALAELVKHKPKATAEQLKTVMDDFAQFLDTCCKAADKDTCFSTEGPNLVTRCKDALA
In words: Equilibrium dialysis binding to mouse albumin. The settings on record: pH 7.4, equilibrium dialysis, read-out: equilibrium dissociation constant (Kd). As for the experimental part: To determine whether albumin is the tasquinimod binding protein in plasma, albumin was removed from human plasma using an albumin depletion kit (Thermo Scientific cat # 85160). The albumin depleted plasma was then tested for its protein binding as described above. The dissociation constant (kd) for tasquinimod binding was determined based upon equilibrium dialysis of a mixture of 4mg/ml of the species (i.e., human, bovine, and mouse) specific albumin obtained from Sigma with 2μM of ^14C-labeled tasquinimod in PBS pH 7.4 buffer using a 96-well equilibrium dialyzer™ (Harvard Apparatus, Holliston,MA).

SMILES strings stand for the structures.

What is called fraction unbound is the share of the substance not bound to proteins or other matrix. As a reminder, the Kd is a measure of binding affinity in units of concentration. The compound `COc1cccc2c1c(O)c(C(=O)N(C)c1ccc(C(F)(F)F)cc1)c(=O)n2C` [Tasquinimod] showed a fraction unbound in data set [1] of roughly 0.02. Also, the Kd at mouse albumin was 16 ± 3 µM.

Source of the values: paper PMC4226669, “Anti-cancer potency of tasquinimod is enhanced via albumin-binding facilitating increased uptake in the tumor microenvironment” (Oncotarget, 2014).
